Laboratory results from patent US11351178B2, “Selective HDAC6 inhibitors” (ITALFARMACO S.P.A., priority 2017, dated 2022).

What was measured:
Stability in rat plasma = assay type: in vitro ADME; details: after 4 hours, 37° C.
Experimental: In order to evaluate the stability to circulating enzymes, test compounds were incubated in human and rat plasma at 37° C. in a thermostated oscillating bath. Each test compound was incubated at μM (50 μM when the samples were analysed by UV/HPLC, 1 or 2 μM when the samples were analysed by LC-MS/MS) concentration for 0, 15, 30 min and 1, 2 and 4 hours. The reaction was stopped placing tubes on ice bath and adding acidified acetonitrile. After centrifugation for 10 minutes at 14000 rpm, an aliquot of the supernatant was diluted with water, filtered with 0.45 μm syringe filters and injected in HPLC-UV or in LC-MS/MS. The percentages of amount remaining at the various times of incubation with respect to initial amount were calculated. The half-life in plasma was also calculated.

recombinant human HDAC6 = molecular target: T1, recombinant human HDAC6 (Homo sapiens, UniProt Q9UBN7); assay: Enzymatic screening on recombinant human HDAC6; assay type: biochemical; details: Table 2; read-out: HDAC6 IC50
T1 sequence (Q9UBN7 1-1215): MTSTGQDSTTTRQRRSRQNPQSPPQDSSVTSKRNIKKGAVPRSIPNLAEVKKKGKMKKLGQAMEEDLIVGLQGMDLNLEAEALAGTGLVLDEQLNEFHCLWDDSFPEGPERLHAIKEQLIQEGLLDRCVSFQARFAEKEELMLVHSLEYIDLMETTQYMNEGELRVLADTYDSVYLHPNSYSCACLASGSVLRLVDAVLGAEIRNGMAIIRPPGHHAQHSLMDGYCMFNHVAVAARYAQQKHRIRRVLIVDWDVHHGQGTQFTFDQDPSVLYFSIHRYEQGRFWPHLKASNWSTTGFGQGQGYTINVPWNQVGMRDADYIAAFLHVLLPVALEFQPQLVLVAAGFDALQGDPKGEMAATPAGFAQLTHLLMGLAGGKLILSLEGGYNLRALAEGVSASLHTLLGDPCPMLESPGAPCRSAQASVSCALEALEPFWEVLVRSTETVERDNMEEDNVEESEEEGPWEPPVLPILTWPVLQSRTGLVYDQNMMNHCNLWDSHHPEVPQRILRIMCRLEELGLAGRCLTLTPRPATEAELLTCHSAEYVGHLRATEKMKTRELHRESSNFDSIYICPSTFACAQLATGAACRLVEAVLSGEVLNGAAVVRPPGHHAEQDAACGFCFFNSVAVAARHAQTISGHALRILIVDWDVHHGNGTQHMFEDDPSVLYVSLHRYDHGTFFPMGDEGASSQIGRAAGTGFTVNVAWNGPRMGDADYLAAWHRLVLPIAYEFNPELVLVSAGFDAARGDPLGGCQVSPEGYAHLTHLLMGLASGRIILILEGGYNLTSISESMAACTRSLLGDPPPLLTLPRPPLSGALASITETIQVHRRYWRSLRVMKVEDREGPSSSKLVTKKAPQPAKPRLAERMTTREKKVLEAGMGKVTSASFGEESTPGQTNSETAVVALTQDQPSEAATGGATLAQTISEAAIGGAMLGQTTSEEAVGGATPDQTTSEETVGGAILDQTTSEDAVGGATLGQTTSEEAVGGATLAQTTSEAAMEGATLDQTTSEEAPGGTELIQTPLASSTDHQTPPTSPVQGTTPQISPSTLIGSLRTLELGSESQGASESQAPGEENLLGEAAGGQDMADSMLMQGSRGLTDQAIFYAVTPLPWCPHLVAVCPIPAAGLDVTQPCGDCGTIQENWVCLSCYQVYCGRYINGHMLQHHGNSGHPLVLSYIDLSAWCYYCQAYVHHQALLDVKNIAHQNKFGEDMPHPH
Experimental: Enzymatic activity on recombinant human HDAC6 and HDAC3 was evaluated (Table 2) for each synthesized compound.
After a period of incubation at 30° C. (incubation times vary for different isoforms and are shown in table 1) 25 μL of solution containing the substrate were added. As substrate, FLUOR DE LYS® deacetylase substrate (Enzo Life Sciences, cat #BML-K1104, FdL), FLUOR DE LYS®-Green substrate (Enzo Life Sciences, cat #BML-K1572 FdL_G) and trifluoroacetyl-L-lysine (Tfal)-2× concentrated solution in 25 mM Tris-HCl, pH 8, 130 mM NaCl 0.05% Tween-20 10% glycerol) were used. Following a reaction period at 30° C.

[1] = Stability to Phase I metabolism in rat S9 liver fraction; assay type: in vitro ADME; details: after 90 min, 37° C.
Experimental: Test compounds were incubated in rat and human liver S9 fraction at 37° C. up to 90 minutes in order to evaluate their stability to Phase I metabolism by hepatic enzymes. […] The reaction was stopped placing samples on ice bath and adding acidified acetonitrile. After centrifugation (10 minutes at 14000 rpm) an aliquot of the supernatant was diluted water, filtered with 0.45 μm regenerated cellulose syringe filters and injected in HPLC-UV or in LC-MS/MS. The percentages of the amount remaining at the various incubation times with respect to the initial amount were calculated. The intrinsic clearance was also calculated.

SMILES | residual percentage in rat plasma (Stability in rat plasma) [%] | IC50 (recombinant human HDAC6) [nM] | residual percentage in rat S9 fraction [1] [%]
O=C(NO)c1ccc(Sc2nnc(-c3c[nH]c4ccccc34)n2Cc2ccco2)cc1 [comp. 25, 4-[[4-(2-furylmethyl)-5-(1H-indol-3-yl)-1,2,4-triazol-3-yl]sulfanyl]benzenecarbohydroxamic acid;2,2,2-trifluoroacetic acid] | 77 | 47 | 9
O=C(NO)c1ccc(Sc2nnc(-c3ccc(F)cc3)[nH]2)cc1 [comp. 29, 4-[[5-(4-fluorophenyl)-4H-1,2,4-triazol-3-yl]sulfanyl]benzenecarbohydroxamic acid] | 103 | 19 | 74
O=C(NO)c1ccc(Cn2nnc(-c3ccc(Cl)cc3Cl)n2)cc1 [comp. 38, 4-[[5-(2,4-dichlorophenyl)tetrazol-2-yl]methyl]benzenecarbohydroxamic acid] |  | 10 | 1
O=C(NO)c1ccc(Cn2nnc(-c3csc4ccccc34)n2)cc1 [comp. 42, 4-[[5-(benzothiophen-3-yl)tetrazol-2-yl]methyl]benzenecarbohydroxamic acid] |  | 5 | 16
CSc1sc(-c2nnn(Cc3ccc(C(=O)NO)cc3)n2)c2c1C(=O)CC(C)(C)C2 [comp. 54, 4-[[5-(6,6-dimethyl-3-methylsulfanyl-4-oxo-5,7-dihydro-2-benzothiophen-1-yl)tetrazol-2-yl]methyl]benzenecarbohydroxamic acid] |  | 18 | 0
O=C(NO)c1ccc(Cn2nnc(-c3cc4ccccc4s3)n2)cc1 [comp. 55, 4-[[5-(benzothiophen-2-yl)tetrazol-2-yl]methyl]benzenecarbohydroxamic acid] |  | 6 | 46
Cn1c(Sc2c(F)cc(C(=O)NO)cc2F)nnc1-c1scc2c1OCCO2 [comp. 118, 4-[[5-(2,3-dihydrothieno[3,4-b][1,4]dioxin-5-yl)-4-methyl-1,2,4-triazol-3-yl]sulfanyl]-3,5-difluoro-benzenecarbohydroxamic acid] |  | 6 | 
O=C(NO)c1ccc(Cn2nnnc2-c2ncccn2)cc1 [comp. 124, 4-[(5-pyrimidin-2-yltetrazol-1-yl)methyl]benzenecarbohydroxamic acid] |  | 72 | 
O=C(NO)c1ccc(Cn2nnc(-c3ccc(C(F)(F)F)cn3)n2)cc1 [comp. 126, 4-[[5-[5-(trifluoromethyl)-2-pyridyl]tetrazol-2-yl]methyl]benzenecarbohydroxamic acid] |  | 86 | 
O=C(NO)c1ccc(Cn2nnnc2-c2ccc(C(F)(F)F)cn2)cc1 [comp. 127, 4-[[5-[5-(trifluoromethyl)-2-pyridyl]tetrazol-1-yl]methyl]benzenecarbohydroxamic acid] |  | 9 | 
O=C(NO)c1cc(F)c(Cn2nnc(-c3ccc(C(F)(F)F)cn3)n2)c(F)c1 [comp. 128, 3,5-difluoro-4-[[5-[5-(trifluoromethyl)-2-pyridyl]tetrazol-2-yl]methyl]benzenecarbohydroxamic acid] |  | 45 | 
O=C(NO)c1ccc(Cn2nnc(-c3ncc(C(F)(F)F)cc3N3CCOCC3)n2)cc1 [comp. 130, 4-[[5-[3-morpholino-5-(trifluoromethyl)-2-pyridyl]tetrazol-2-yl]methyl]benzenecarbohydroxamic acid] |  | 837 | 
O=C(NO)c1ccc(Cn2nnnc2-c2ncc(C(F)(F)F)cc2N2CCOCC2)cc1 [comp. 131, 4-[[5-[3-morpholino-5-(trifluoromethyl)-2-pyridyl]tetrazol-1-yl]methyl]benzenecarbohydroxamic acid] |  | 57 | 
O=C(NO)c1ccc(Cn2nnc(Cc3ccccn3)n2)cc1 [comp. 132, 4-[[5-(2-pyridylmethyl)tetrazol-2-yl]methyl]benzenecarbohydroxamic acid;2,2,2-trifluoroacetic acid] |  | 25 | 
O=C(NO)c1ccc(Cn2nnnc2Cc2ccccn2)cc1 [comp. 133, 4-[[5-(2-pyridylmethyl)tetrazol-1-yl]methyl]benzenecarbohydroxamic acid;2,2,2-trifluoroacetic acid] |  | 283 | 
Cn1c(Sc2c(F)cc(C(=O)NO)cc2F)nnc1-c1cc(-c2cccs2)n(-c2ccccc2)n1 [comp. 136, 3,5-difluoro-4-[[4-methyl-5-[1-phenyl-5-(2-thienyl)pyrazol-3-yl]-1,2,4-triazol-3-yl]sulfanyl]benzenecarbohydroxamic acid] |  | 40 | 
O=C(NO)c1cc(F)c(Sc2nnc(-c3ccc(F)cc3)n2CCN2CCOCC2)c(F)c1 [comp. 138, 3,5-difluoro-4-[[5-(4-fluorophenyl)-4-(2-morpholinoethyl)-1,2,4-triazol-3-yl]sulfanyl]benzenecarbohydroxamic acid] |  | 12 | 79
O=C(NO)c1cc(F)c(Sc2nnc(-c3ccco3)n2Cc2ccccc2)c(F)c1 [comp. 142, 4-[[4-benzyl-5-(2-furyl)-1,2,4-triazol-3-yl]sulfanyl]-3,5-difluoro-benzenecarbohydroxamic acid] |  | 20 | 
O=C(NO)c1cc(F)c(Sc2nnc(-c3cccs3)n2Cc2ccccc2)c(F)c1 [comp. 143, 4-[[4-benzyl-5-(2-thienyl)-1,2,4-triazol-3-yl]sulfanyl]-3,5-difluoro-benzenecarbohydroxamic acid] |  | 25 | 
O=C(NO)c1cc(F)c(Sc2nnc(-c3cccs3)n2Cc2ccco2)c(F)c1 [comp. 144, 3,5-difluoro-4-[[4-(2-furylmethyl)-5-(2-thienyl)-1,2,4-triazol-3-yl]sulfanyl]benzenecarbohydroxamic acid] |  | 12 | 
Cn1c(Sc2c(F)cc(C(=O)NO)cc2F)nnc1-c1cc2ccccc2cn1 [comp. 148, 3,5-difluoro-4-[[5-(3-isoquinolyl)-4-methyl-1,2,4-triazol-3-yl]sulfanyl]benzenecarbohydroxamic acid] |  | 6 | 
Cn1c(Sc2c(F)cc(C(=O)NO)cc2F)nnc1-c1ccc(CN2CCCC2)o1 [comp. 207, 3,5-difluoro-4-[[4-methyl-5-[5-(pyrrolidin-1-ylmethyl)-2-furyl]-1,2,4-triazol-3-yl]sulfanyl]benzenecarbohydroxamic acid] |  | 7 | 
COc1ccc(C2(c3nnc(Sc4c(F)cc(C(=O)NO)cc4F)n3C)CC2)cc1 [compound 104, 3,5-difluoro-4-[[5-[1-(4-methoxyphenyl)cyclopropyl]-4-methyl-1,2,4-triazol-3-yl]sulfanyl]benzenecarbohydroxamic acid] |  | 48 | 
O=C(NO)c1cc(F)c(Cc2noc(-c3ccc(CN4CCCC4)o3)n2)c(F)c1 [compound 202, 3,5-difluoro-4-[[5-[5-(pyrrolidin-1-ylmethyl)-2-furyl]-1,2,4-oxadiazol-3-yl]methyl]benzenecarbohydroxamic acid] |  | 9 | 
